From ChEMBL document CHEMBL3596150, “Acylated glucosylflavones as α-glucosidase inhibitors from Tinospora crispa leaf” (Bioorg Med Chem, 2015)
The source made the active and inactive calls. No cut-off for these calls is given here.

Tests used:
[1] = Retention time of the compound by HPLC-SPE-NMR analysis; format: physicochemical
[2] = Inhibition of Bacillus stearothermophilus alpha-glucosidase; set-up: species or system Geobacillus stearothermophilus
[3] = system: Geobacillus stearothermophilus; experiment: Inhibition of Bacillus stearothermophilus alpha-glucosidase at 10 ug/ml
[4] = Cytotoxicity against human WS1 cells; format: cell-based

Retention_time [1]	IC50 [2]	inhibition [3]	Structure (SMILES)	IC50 [4]
36.5 min	4.3 µM		O=C(/C=C/c1ccc(O)cc1)O[C@@H]1[C@@H](O)[C@H](O)[C@@H](CO)O[C@H]1c1c(O)cc2oc(-c3ccc(O)cc3)cc(=O)c2c1O	
19.5 min	61.2 µM		O=c1cc(-c2ccc(O)cc2)oc2cc(O)c([C@@H]3O[C@H](CO)[C@@H](O)[C@H](O)[C@H]3O)c(O)c12 [ISOVITEXIN]	
50.2 min	34.6 µM		O=c1cc(-c2ccc(O)cc2)oc2cc(O)cc(O)c12 [APIGENIN]	
25.7 min		inactive	O=c1cc(-c2ccc(O)cc2)oc2cc(O[C@@H]3O[C@H](CO)[C@@H](O)[C@H](O)[C@H]3O)cc(O)c12 [APIGETRIN]	
51.4 min			O=C(/C=C/c1ccccc1)OC[C@H]1O[C@@H](Oc2cc(O)c3c(=O)cc(-c4ccc(O)c(O)c4)oc3c2)[C@H](O)[C@@H](O)[C@@H]1O	
14.9 min	1530 µM		O=c1cc(-c2ccc(O)c(O)c2)oc2cc(O)c([C@@H]3O[C@H](CO)[C@@H](O)[C@H](O)[C@H]3O)c(O)c12 [ISOORIENTIN]	
	0.033 µM		C[C@H]1O[C@H](O[C@H]2[C@H](O)[C@@H](O)[C@@H](O[C@H]3[C@H](O)[C@@H](O)C(O)O[C@@H]3CO)O[C@@H]2CO)[C@H](O)[C@@H](O)[C@@H]1N[C@H]1C=C(CO)[C@@H](O)[C@H](O)[C@H]1O (stereo not given in full) [ACARBOSE]	
		inactive	O=c1cc(-c2ccc(O[C@@H]3O[C@H](CO)[C@@H](O)[C@H](O)[C@H]3O)c(O)c2)oc2cc(O)cc(O)c12	
51.4 min			COc1cc(-c2cc(=O)c3c(O)cc(O)cc3o2)ccc1O [CHRYSOERIOL]	
57.4 min	11.3 µM		O=C(/C=C\c1ccccc1)OC[C@H]1O[C@@H](Oc2cc(O)c3c(=O)cc(-c4ccc(O)cc4)oc3c2)[C@H](O)[C@@H](O)[C@@H]1O	
29.9 min	35.7 µM		O=C(/C=C/c1ccc(O)cc1)O[C@@H]1[C@@H](O)[C@H](O)[C@@H](CO)O[C@H]1c1c(O)cc2oc(-c3ccc(O)c(O)c3)cc(=O)c2c1O	
41.8 min	8.8 µM		COc1cc(/C=C/C(=O)OC[C@H]2O[C@@H](Oc3cc(O)c4c(=O)cc(-c5ccc(O)cc5)oc4c3)[C@H](O)[C@@H](O)[C@@H]2O)ccc1O	
43.4 min	14.6 µM		O=C(/C=C/c1ccc(O)cc1)OC[C@H]1O[C@@H](Oc2cc(O)c3c(=O)cc(-c4ccc(O)cc4)oc3c2)[C@H](O)[C@@H](O)[C@@H]1O	42 µM
44.9 min	10.1 µM		O=C(/C=C\c1ccc(O)cc1)OC[C@H]1O[C@@H](Oc2cc(O)c3c(=O)cc(-c4ccc(O)cc4)oc3c2)[C@H](O)[C@@H](O)[C@@H]1O	
29.1 min			COc1cc(/C=C/C(=O)O[C@@H]2[C@@H](O)[C@H](O)[C@@H](CO)O[C@H]2c2c(O)cc3oc(-c4ccc(O)c(O)c4)cc(=O)c3c2O)cc(OC)c1O	
20.7 min		inactive	O=c1cc(-c2ccc(O)c(O)c2)oc2cc(O[C@@H]3O[C@H](CO)[C@@H](O)[C@H](O)[C@H]3O)cc(O)c12 [GALUTEOLIN]	

Structure (SMILES)	Retention_time [1]	IC50 [2]	inhibition [3]	IC50 [4]
O=c1cc(-c2ccc(O)c(O)c2)oc2c([C@@H]3O[C@H](CO)[C@@H](O)[C@H](O)[C@H]3O)c(O)cc(O)c12 [ORIENTIN]	16.6 min			
O=c1cc(-c2ccc(O)c(O)c2)oc2cc(O)cc(O)c12 [LUTEOLIN]		86.1 µM		
